Laboratory results from US12606558B2, “Condensed pyrazole derivatives as inhibitors of SARM1” (Disarm Therapeutics, Inc., priority 2020, dated 2026).

Target: T1, SARM1 (Homo sapiens, UniProt Q6SZW1)
T1 construct: made in house; host or cells: NRK1-HEK293T cells, transient transfection; clarified lysate used without purification
T1 sequence (Q6SZW1 with tags, fused parts or gaps): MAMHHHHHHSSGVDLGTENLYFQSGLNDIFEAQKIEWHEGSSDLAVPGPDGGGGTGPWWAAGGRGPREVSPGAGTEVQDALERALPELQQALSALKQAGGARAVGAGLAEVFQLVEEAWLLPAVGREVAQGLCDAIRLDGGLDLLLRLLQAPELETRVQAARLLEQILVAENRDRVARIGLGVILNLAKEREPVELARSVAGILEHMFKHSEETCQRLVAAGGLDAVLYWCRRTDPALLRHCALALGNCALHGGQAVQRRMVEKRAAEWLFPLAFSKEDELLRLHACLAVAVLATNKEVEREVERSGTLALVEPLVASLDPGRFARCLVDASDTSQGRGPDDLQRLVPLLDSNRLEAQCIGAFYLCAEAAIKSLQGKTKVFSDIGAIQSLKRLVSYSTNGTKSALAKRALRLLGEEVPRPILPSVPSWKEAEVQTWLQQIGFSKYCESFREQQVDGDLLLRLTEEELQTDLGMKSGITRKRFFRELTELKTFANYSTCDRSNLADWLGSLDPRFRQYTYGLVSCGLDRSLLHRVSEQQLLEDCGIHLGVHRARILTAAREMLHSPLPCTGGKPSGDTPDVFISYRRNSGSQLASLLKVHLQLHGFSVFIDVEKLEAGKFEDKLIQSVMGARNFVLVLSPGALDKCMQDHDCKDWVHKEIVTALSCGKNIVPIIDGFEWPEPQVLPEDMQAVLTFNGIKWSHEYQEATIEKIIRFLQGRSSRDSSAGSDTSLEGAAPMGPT
Test: ARM-SAM-TIR SARM1 IC50 assay (NADase activity, NAD+ cleavage)
Format: biochemical
Conditions: ARM-SAM-TIR lysate 5 μg/mL, 2 h pre-incubation, 5 μM NAD+, 2 hr room temperature, RapidFire mass spectrometry of NAD+ and ADPR
Procedure: This Example describes an assay of ARM-SAM-TIR NADase activity and use of this assay to measure the efficacy of compounds of Formula I/II to block SARM1 mediated NAD+ cleavage. This assay was optimized in such a way as to characterize the efficacy of the compounds in Formula I/II to inhibit SARM1 activity and to calculate an IC50 value for each compound. This assay makes use of full length SARM1, which encompasses the ARM, SAM and TIR domains.
NRK1-HEK293T cells were seeded onto 150 cm^2 plates at 20×10^6 cells per plate. The next day, the cells were transfected with 15 μg ARM-SAM-TIR expression plasmid, SEQ ID NO: 1.
The cultures were supplemented with 1 mM NR at time of transfection to minimize toxicity from ARM-SAM-TIR overexpression. Forty-eight hours after transfection, cells were harvested, pelleted by centrifugation at 1,000 rpm (Sorvall ST 16R centrifuge, Thermo Fisher), and washed once with cold PBS (0.01 M phosphate buffered saline NaCl 0.138 M; KCl 0.0027 M; pH 7.4). The cells were resuspended in PBS with protease inhibitors (cOmplete™ protease inhibitor cocktail, Roche product #11873580001) and cell lysates were prepared by sonication (Branson Sonifer 450, output=3, 20 episodes of stroke). The lysates were centrifuged (12,000×g for 10 min at 4° C.) to remove cell debris and the supernatants (containing ARM-SAM-TIR protein) were stored at −80° C. for later use in the in vitro ARM-SAM-TIR NADase assay (see below). Protein concentration was determined by the Bicinchoninic (BCA) method and used to normalize lysate concentrations.
The enzymatic assay was performed in a 384-well polypropylene plate in Dulbecco's PBS buffer in a final assay volume of 20 μL. ARM-SAM-TIR lysate with a final concentration of 5 μg/mL was pre-incubated with the respective compound at 1% DMSO final assay concentration over 2 h at room temperature. The reaction was initiated by addition of 5 μM final assay concentration of NAD+ as substrate. After a 2 hr room temperature incubation, the reaction was terminated with 40 μL of stop solution of 7.5% trichloroactetic acid in acetonitrile. The NAD+ and ADPR concentrations were analyzed by a RapidFire High Throughput Mass Spectrometry System (Agilent Technologies, Santa Clara, Calif.) using an API4000 triple quadrupole mass spectrometer (AB Sciex Framingham, Mass.).

Question: Which IC50 does the source give for O=C(CCc1ccc(Cl)nc1)N1CCCc2c(-c3ccncc3)n[nH]c21 [Example 1] here?
Answer: 100 to 1000 nM

Question: How did the IC50 turn out when O=C(CCc1ccc(Cl)cc1)N1CCCc2c(-c3ccncc3)n[nH]c21 [Example 2] was run?
Answer: < 100 nM

Question: How did the IC50 turn out when O=C(CCc1ccc(Cl)cc1)N1CCOc2c(-c3ccncc3)n[nH]c21 [Example 3] was run?
Answer: < 100 nM

Question: O=C(NCc1ccc(Cl)nc1)N1CCCc2c(-c3ccncc3)n[nH]c21 [Example 4] was tested. Which IC50 did it give?
Answer: > 10000 nM

Question: Which IC50 does the source give for O=C(NCc1ccc(Cl)cc1)N1CCCc2c(-c3ccncc3)n[nH]c21 [Example 5] here?
Answer: 1010 to 5000 nM

Question: O=C(CCc1ccc(Cl)cc1)N1CCOc2c(-c3ccnnc3)n[nH]c21 [Example 6] was tested. Which IC50 did it give?
Answer: < 100 nM

Question: How did the IC50 turn out when O=C(CCc1ccc(Cl)cc1)N1CCCc2c(-c3ccnnc3)n[nH]c21 [Example 7] was run?
Answer: < 100 nM

Question: For N#Cc1ccc(CCC(=O)N2CCCc3c(-c4ccncc4)n[nH]c32)cc1 [Example 8], which IC50 is on record?
Answer: 100 to 1000 nM

Question: With N#Cc1ccc(CCC(=O)N2CCCc3c(-c4ccnnc4)n[nH]c32)cc1 [Example 9] as the molecule, how does the IC50 read?
Answer: < 100 nM

Question: With O=C(CCc1ccc(Cl)nc1)N1CCCc2c(-c3ccnnc3)n[nH]c21 [Example 10] as the molecule, how does the IC50 read?
Answer: < 100 nM

Question: How did the IC50 turn out when O=C(CCc1cnc(Cl)c(F)c1)N1CCCc2c(-c3ccncc3)n[nH]c21 [Example 11] was run?
Answer: < 100 nM

Question: For O=C(CCc1cnc(Cl)c(F)c1)N1CCCc2c(-c3ccnnc3)n[nH]c21 [Example 12], which IC50 is on record?
Answer: < 100 nM

Question: For O=C(CCc1ccc(Cl)c(F)c1)N1CCCc2c(-c3ccncc3)n[nH]c21 [Example 13], which IC50 is on record?
Answer: < 100 nM

Question: N#Cc1ccc(CCC(=O)N2CCCc3c(-c4ccncc4)n[nH]c32)cc1F [Example 14] was tested. Which IC50 did it give?
Answer: < 100 nM

Question: Which IC50 does the source give for O=C(CCc1ccc(Cl)c(F)c1)N1CCCc2c(-c3ccnnc3)n[nH]c21 [Example 15] here?
Answer: < 100 nM

Question: For N#Cc1ccc(CCC(=O)N2CCCc3c(-c4ccnnc4)n[nH]c32)cc1F [Example 16], which IC50 is on record?
Answer: < 100 nM

Question: Which IC50 does the source give for O=C1CCN(C(=O)CCc2ccc(Cl)cc2)c2[nH]nc(-c3ccncc3)c21 [Example 17] here?
Answer: < 100 nM

Question: With O=C1CCN(C(=O)CCc2ccc(Cl)nc2)c2[nH]nc(-c3ccncc3)c21 [Example 18] as the molecule, how does the IC50 read?
Answer: 100 to 1000 nM

Question: For O=C(CCc1ccc(Cl)cc1)N1CCC(O)c2c(-c3ccncc3)n[nH]c21 (centres unmarked) [Example 19], which IC50 is on record?
Answer: < 100 nM

Question: With O=C(CCc1ccc(Cl)nc1)N1CCC(O)c2c(-c3ccncc3)n[nH]c21 (centres unmarked) [Example 20] as the molecule, how does the IC50 read?
Answer: 100 to 1000 nM
